Experimental data reported in US12648574B2 (priority 2019, dated 2026).
Read-outs that look alike come from different tables or passages of the source.

Legend:
[1] = tested on: Xylella fastidiosa subsp. multiplex IVIA 5901.2; type: cell-based; conditions: for mean survival: ampicillin 100 mg/L
[2] = tested on: Xylella fastidiosa subsp. fastidiosa IVIA 5387.2; type: cell-based; conditions: for mean survival: streptomycin 100 mg/L
[3] = tested on: X. fastidiosa subsp. fastidiosa (IVIA strain 5387.2); type: cell-based, Xylella fastidiosa subsp. fastidiosa; conditions: ampicillin 100 mg/l
[4] = tested on: Xylella fastidiosa subsp. fastidiosa strain 5387.2 in almond plants of the Avijor variety; type: in vivo; conditions: ampicillin 100 mg/L
[5] = tested on: Erwinia amylovora EPS 101; type: cell-based
[6] = tested on: Xanthomonas arboricola pv. pruni CFBP 5563; type: cell-based
[7] = tested on: Pseudomonas syringae pv. syringae EPS 94; type: cell-based
[8] = tested on: Xanthomonas fragariae 349-9^a; type: cell-based
[9] = tested on: Xanthomonas axonopodis pv. vesicatoria IVIA 2133.2; type: cell-based
[10] = tested on: Ralstonia solanacearum CECT 125; type: cell-based; conditions: streptomycin 100 mg/L
[11] = tested on: Xylella fastidiosa subsp. fastidiosa IVIA 5387.2; type: cell-based; conditions: streptomycin 100 mg/L
[12] = tested on: Xylella fastidiosa subsp. multiplex IVIA 5901.2; type: cell-based; conditions: streptomycin 100 mg/L
[13] = tested on: Xylella fastidiosa subsp. pauca DD1 CODiRo; type: cell-based; conditions: streptomycin 100 mg/L
[14] = tested on: Erwinia amylovora EPS 101; type: cell-based; remark: listed apart in the source
[15] = tested on: Xanthomonas arboricola pv. pruni CFBP 5563; type: cell-based; remark: listed apart in the source
[16] = tested on: Xanthomonas axonopodis pv. vesicatoria IVIA 2133.2; type: cell-based; conditions: 2 h
[17] = tested on: X. fastidiosa subsp. pauca strain CoDiRO (DD1); type: cell-based, Xylella fastidiosa subsp. pauca; conditions: streptomycin 100 mg/L
[18] = tested on: EPS101 strain of E. amylovora in pear plants of the Conference variety; set-up: species or system Erwinia amylovora; conditions: in vivo
[19] = tested on: 11 phytopathogenic strains; type: cell-based
[20] = 31 days after application, qPCR of sap

Question: With CC1(C)S[C@@H]2[C@H](NC(=O)[C@H](N)c3ccccc3)C(=O)N2[C@H]1C(=O)O [ampicillin] as the compound, how does the mean survival ([1]; 30 minutes) read?
Answer: 2%

Question: What about the mean survival ([1]; 120 minutes) of the same compound?
Answer: 4.4%

Question: And the type of effect ([2]; ampicillin 100 mg/L)?
Answer: bacteriostatic effect

Question: What about the survival ([2]; ampicillin 100 mg/L, 30 and 120 minutes, direct suspension or dilution −1) of the same compound?
Answer: no survival

Question: What about the median survival ([3]; 30 minutes) of the same compound?
Answer: 100%

Question: What about the survival ([3]; 2 hours) of the same compound?
Answer: 20.6%

Question: What about the “plants with decrease of viable bacteria at the inoculation point” value ([4]; 18 h after application, 4 plants) of the same compound?
Answer: 25 % of the plants

Question: And the “plants with upward and downward movement of Xylella fastidiosa” value ([4]; 31 days after application)?
Answer: 75 % of the plants

Question: And the “plants with Xylella fastidiosa not detected in A1” value [4, 20]?
Answer: 25 % of plants

Question: What about the “plants with Xylella fastidiosa not detected in A2” value [4, 20] of the same compound?
Answer: 25 % of plants

Question: And the “plants with Xylella fastidiosa not detected in B” value [4, 20]?
Answer: 25 % of plants

Question: And the “severity of infections with respect to untreated control” value ([4]; curative trunk microinjection, product 20 and 40 μl/ml, 31 days after application)?
Answer: significantly reduced

Question: What about the “lower progression of Xylella fastidiosa by the vascular system (qPCR)” value ([4]; product 20 μl/ml, 14 days after application) of the same compound?
Answer: not observed

Question: [H]/N=C(/N)N[C@H]1[C@H](O)[C@@H](O)[C@H](O[C@@H]2O[C@@H](C)[C@](O)(C=O)[C@H]2O[C@@H]2O[C@@H](CO)[C@H](O)[C@@H](O)[C@@H]2NC)[C@@H](N/C(N)=N\[H])[C@@H]1O [streptomycin] was tested. Which bacterial growth [5] did it give?
Answer: −

Question: What about the bacterial growth [6] of the same compound?
Answer: −

Question: What about the bacterial growth [7] of the same compound?
Answer: −

Question: And the bacterial growth [8]?
Answer: −

Question: What about the bacterial growth [9] of the same compound?
Answer: −

Question: And the bacterial growth [10]?
Answer: −

Question: And the bacterial growth [11]?
Answer: −

Question: What about the bacterial growth [12] of the same compound?
Answer: −

Question: And the bacterial growth [13]?
Answer: −

Question: And the survival [14]?
Answer: significant reduction

Question: And the mean survival [15]?
Answer: 0.01%

Question: What about the survival ([15]; 2 hours) of the same compound?
Answer: no survival

Question: What about the survival [16] of the same compound?
Answer: 3.06

Question: What about the survival ([17]; 30 minutes) of the same compound?
Answer: 89.8%

Question: What about the survival ([17]; 120 minutes) of the same compound?
Answer: 61.7%

Question: And the “survival compared to the untreated control” value ([1]; streptomycin 100 mg/L)?
Answer: no significant differences

Question: And the mean survival ([2]; 30 minutes)?
Answer: 4.4%

Question: What about the mean survival ([2]; 120 minutes) of the same compound?
Answer: 20%

Question: What about the “severity of infections with respect to untreated control” value [18] of the same compound?
Answer: significantly reduced

Question: What about the “growth of all pathogens tested” value [19] of the same compound?
Answer: inhibited the growth
